Data reported in patent US20260327232A1, “Heteroaryl Compounds as Ligand Directed Degraders of IRAK4” (Celgene Corporation, priority 2023, published 2026).
Counter-ions that a name gives are not always drawn.

How the values were obtained:
[1] = target: T1, IRAK4 (Homo sapiens, UniProt Q9NWZ3); experiment: IRAK4 PhosphoSens Biochemical Assay (BIOCHEM); conditions: 200 μM ATP, 10 μM peptide substrate AQT0326, 1 nM IRAK4, room temperature, 240 minutes
T1 sequence (Q9NWZ3 1-460): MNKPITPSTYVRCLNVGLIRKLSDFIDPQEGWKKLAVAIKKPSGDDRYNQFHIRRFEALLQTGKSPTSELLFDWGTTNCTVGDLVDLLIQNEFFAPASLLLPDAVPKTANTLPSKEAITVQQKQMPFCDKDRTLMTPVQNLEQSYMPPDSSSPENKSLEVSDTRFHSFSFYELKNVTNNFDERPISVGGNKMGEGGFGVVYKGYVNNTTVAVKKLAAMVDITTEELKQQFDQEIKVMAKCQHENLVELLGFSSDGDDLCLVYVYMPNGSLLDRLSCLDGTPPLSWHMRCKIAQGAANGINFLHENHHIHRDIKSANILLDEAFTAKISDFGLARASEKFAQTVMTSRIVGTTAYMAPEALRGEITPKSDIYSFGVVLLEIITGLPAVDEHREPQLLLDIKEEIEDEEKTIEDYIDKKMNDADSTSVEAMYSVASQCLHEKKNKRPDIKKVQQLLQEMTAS

[2] = target: T1, IRAK4; experiment: ALE THP1 HTRF (IRAK4 in THP1 cell lysates, Homogeneous Time Resolved Fluorescence); type: cell-based; parameters: THP1 Homogeneous Time Resolved Fluorescence (ALE THP1 HTRF) Procedure; endogenous in cells; host or cells: THP1; conditions: THP1 cells
Procedure: Cell culture media was prepared in a tissue culture hood in a sterile environment by adding 10% FBS and 1% Penicillin Streptomycin to 500 mL no phenol red RPMI 1640 media. The media was filtered through a Nalgene Bottle Top Filter and stored at 4° C.
For Homogenous Time Resolved Fluorescence (HTRF) assays, a Cisbio HTRF kit was used, which included: Lysis Buffer #1 4×, Blocking Reagent #3 100×, 20× Antibody 1 (Anti-IRAK4 d2), 20× Antibody 2 (Anti-IRAK4 k), and Detection Buffer.
4× Lysis Buffer was stored at 4° C. For use as 1× Lysis buffer, the 4× solution was diluted with de-ionized water (distilled water, Gibco Cat. #15230279) and 100× Blocking Reagent in a 1:3:0.04 volume ratio.
20× Antibody Solution aliquots were stored in −80° C. and the Detection Buffer was stored in 4° C. For use as a 1× Antibody Solution, the 20× Antibody Solution aliquot was diluted with Detection Buffer in a 1:19 volume ratio.
Cells were lysed at room temperature for 45 min with shaking. A BCA protein assay was performed and normalization was conducted to the desired total protein concentration with 1× lysis buffer. Next, 1× Antibody Solutions were prepared by adding 380 μL Detection Buffer to 20 μL 20× Antibody Solution aliquots and mixing well. 1× Antibody Solutions were combined 1:1 and briefly vortexed. For control wells, 20 μL 1× anti IRAK4-k Antibody Solution was saved. The 384-well plate (ProxiPlate-384 Plus, Perkin Elmer Cat. #6008289) was loaded by adding 4 μL of the mixed Antibody Solution to empty wells using a single channel repeater. Using a multi-channel repeater, 16 μL lysate was added per well, and any bubbles that were formed were popped with 20 μL pipette tips and Kimwipe edges. In column 10, triplicates of each control was prepared. In wells A10, B10, and C10, buffer control was prepared by adding 16 μL Lysis Buffer and 4 μL Detection Buffer. In wells D10, E10, and F10, cryptate control was prepared by adding 16 μL Lysis Buffer, 2 μL Detection Buffer, and 2 μL 1× anti IRAK4-k Antibody Solution. In wells G10, H10, and 110, a negative control was prepared by adding 16 μL Lysis Buffer and 4 μL mixed Antibody Solution. The plate was sealed with a clear seal and covered with an aluminum lid. The plate was spun down at 800 g for 5 min and incubated in the dark at room temperature overnight. The next day, the plate was spun down at 800 g for 5 min. The samples were analyzed by a plate reader (Envision, PerkinElmer) using the Desnor 384 HTRF program.

Structure (SMILES) | IC50 [1] | EC50 [2]
Cn1nc(C2CCC(=O)NC2=O)c2ccc(NC3CCN(C(=O)[C@H]4CC[C@H](n5cc(NC(=O)c6cnn7ccc(N8C[C@H](N)C[C@@H](F)C8)nc67)c(C(F)F)n5)CC4)CC3)cc21 (some centres unmarked) [P-1] | 0.5 nM | > 10000 nM
Cn1nc(C2CCC(=O)NC2=O)c2ccc(N3CCC(NC(=O)[C@H]4CC[C@H](n5cc(NC(=O)c6cnn7ccc(N8C[C@H](N)C[C@@H](F)C8)nc67)c(C(F)F)n5)CC4)CC3)cc21 (stereo partly drawn) [P-4, 5-((3R,5R)-3-amino-5-fluoropiperidin-1-yl)-N-(3-(difluoromethyl)-1-((1r,4r)-4-((1-(3-(2,6-dioxopiperidin-3-yl)-1-methyl-1H-indazol-6-yl)piperidin-4-yl)carbamoyl)cyclohexyl)-1H-pyrazol-4-yl)pyrazolo[1,5-a]pyrimidine-3-carboxamide hydrochloride] | < 0.5 nM | 5.6 nM
Cn1nc(C2CCC(=O)NC2=O)c2ccc(N3CCC(NC[C@H]4CC[C@H](n5cc(NC(=O)c6cnn7ccc(N8C[C@H](N)C[C@@H](F)C8)nc67)c(C(F)F)n5)CC4)CC3)cc21 (stereo partly drawn) [P-5, 5-((3R,5R)-3-Amino-5-fluoropiperidin-1-yl)-N-(3-(difluoromethyl)-1-((1r,4r)-4-(((1-(3-(2,6-dioxopiperidin-3-yl)-1-methyl-1H-indazol-6-yl)piperidin-4-yl)amino)methyl)cyclohexyl)-1H-pyrazol-4-yl)pyrazolo[1,5-a]pyrimidine-3-carboxamide dihydrochloride] | < 0.5 nM | 5 nM
Cn1nc(C2CCC(=O)NC2=O)c2cccc(N3CCC(NC(=O)[C@H]4CC[C@H](n5cc(NC(=O)c6cnn7ccc(N8C[C@H](N)C[C@@H](F)C8)nc67)c(C(F)F)n5)CC4)CC3)c21 (some centres unmarked) [P-6] | < 0.5 nM | 5 nM
Cn1nc(C2CCC(=O)NC2=O)c2cccc(NC3CCN(CCC4CCC(n5cc(NC(=O)c6cnn7ccc(N8C[C@H](N)C[C@@H](F)C8)nc67)c(C(F)F)n5)CC4)CC3)c21 (stereo partly drawn) [P-7, N-[3-(difluoromethyl)-1-[4-[2-[4-[[3-(2,6-dioxo-3-piperidyl)-1-methyl-indazol-7-yl]amino]-1-piperidyl]ethyl]cyclohexyl]pyrazol-4-yl]-5-[(3R,5R)-3-amino-5-fluoro-1-piperidyl]pyrazolo[1,5-a]pyrimidine-3-carboxamide bis-HCl salt] | < 0.5 nM | 12 nM
Cn1nc(C2CCC(=O)NC2=O)c2cccc(N3CCN(C[C@H]4CC[C@H](n5cc(NC(=O)c6cnn7ccc(N8C[C@H](N)C[C@@H](F)C8)nc67)c(C(F)F)n5)CC4)CC3)c21 (some centres unmarked) [P-8] | < 0.5 nM | 7 nM
Cn1nc(C2CCC(=O)NC2=O)c2cccc(NC3CCN(C(=O)[C@H]4CC[C@H](n5cc(NC(=O)c6cnn7ccc(N8C[C@H](N)C[C@@H](F)C8)nc67)c(C(F)F)n5)CC4)CC3)c21 (stereo partly drawn) [P-9, 5-((3R,5R)-3-amino-5-fluoropiperidin-1-yl)-N-(3-(difluoromethyl)-1-((1r,4r)-4-(4-((3-(2,6-dioxopiperidin-3-yl)-1-methyl-1H-indazol-7-yl)amino)piperidine-1-carbonyl)cyclohexyl)-1H-pyrazol-4-yl)pyrazolo[1,5-a]pyrimidine-3-carboxamide hydrochloride] | < 0.5 nM | 4 nM
Cn1nc(C2CCC(=O)NC2=O)c2ccc(N3CCN(CC[C@H]4CC[C@H](n5cc(NC(=O)c6cnn7ccc(N8C[C@H](N)C[C@@H](F)C8)nc67)c(C(F)F)n5)CC4)CC3)cc21 (some centres unmarked) [P-10] | < 0.5 nM | 14 nM
Cn1nc(C2CCC(=O)NC2=O)c2cccc(N3CCN(CCC4CCC(n5cc(NC(=O)c6cnn7ccc(N8C[C@H](N)C[C@@H](F)C8)nc67)c(C(F)F)n5)CC4)CC3)c21 (some centres unmarked) [P-11] | < 0.5 nM | 17 nM
Cn1nc(C2CCC(=O)NC2=O)c2ccc(NC3CC4(C3)CN(CC3CCC(n5cc(NC(=O)c6cnn7ccc(N8C[C@H](N)C[C@@H](F)C8)nc67)c(C(F)F)n5)CC3)C4)cc21 (some centres unmarked) [P-12] | < 0.5 nM | 6 nM
Cn1nc(C2CCC(=O)NC2=O)c2ccc(NC3CN(C[C@H]4CC[C@H](n5cc(NC(=O)c6cnn7ccc(N8C[C@H](N)C[C@@H](F)C8)nc67)c(C(F)F)n5)CC4)C3)cc21 (some centres unmarked) [P-13] | < 0.5 nM | 1 nM
Cn1nc(C2CCC(=O)NC2=O)c2ccc(N3CCN(C[C@H]4CC[C@H](n5cc(NC(=O)c6cnn7ccc(N8C[C@H](N)C[C@@H](F)C8)nc67)c(C(F)F)n5)CC4)CC3)cc21 (some centres unmarked) [P-14] | < 0.5 nM | > 10000 nM
Cn1nc(C2CCC(=O)NC2=O)c2cccc(N3CCC(NC[C@H]4CC[C@H](n5cc(NC(=O)c6cnn7ccc(N8C[C@H](N)C[C@@H](F)C8)nc67)c(C(F)F)n5)CC4)CC3)c21 (some centres unmarked) [P-15] | < 0.5 nM | 10 nM
Cn1nc(C2CCC(=O)NC2=O)c2ccc(NC3CCN(CC[C@H]4CC[C@H](n5cc(NC(=O)c6cnn7ccc(N8C[C@H](N)C[C@@H](F)C8)nc67)c(C(F)F)n5)CC4)CC3)cc21 (some centres unmarked) [P-16] | < 0.5 nM | 5 nM
Cn1nc(C2CCC(=O)NC2=O)c2ccc(C(=O)N3CCN(C[C@H]4CC[C@H](n5cc(NC(=O)c6cnn7ccc(N8C[C@H](N)C[C@@H](F)C8)nc67)c(C(F)F)n5)CC4)CC3)cc21 (some centres unmarked) [P-17] | < 0.5 nM | 1 nM
Cn1nc(C2CCC(=O)NC2=O)c2ccc(NC3CCN(CC4CCC(n5cc(NC(=O)c6cnn7ccc(N8C[C@H](N)C[C@H](F)C8)nc67)c(C(F)F)n5)CC4)CC3)cc21 (some centres unmarked) [P-19] | < 0.5 nM | 5 nM
Cn1nc(C2CCC(=O)NC2=O)c2ccc(NC3CCN(C[C@H]4CC[C@H](n5cc(NC(=O)c6cnn7ccc(N8C[C@H](N)CC(F)(F)C8)nc67)c(C(F)F)n5)CC4)CC3)cc21 (some centres unmarked) [P-20] | < 0.5 nM | 5 nM
Cn1nc(C2CCC(=O)NC2=O)c2ccc(N[C@@H]3CCN(CC4CCC(n5cc(NC(=O)c6cnn7ccc(N8C[C@H](N)C[C@@H](F)C8)nc67)c(C(F)F)n5)CC4)C[C@H]3F)cc21 (some centres unmarked) [P-22] | < 0.5 nM | 5 nM
Cn1nc(C2CCC(=O)NC2=O)c2ccc(N[C@H]3CCN(C[C@H]4CC[C@H](n5cc(NC(=O)c6cnn7ccc(N8C[C@H](N)C[C@@H](F)C8)nc67)c(C(F)F)n5)CC4)C[C@H]3F)cc21 (some centres unmarked) [P-23] | < 0.5 nM | 4 nM
Cn1nc(C2CCC(=O)NC2=O)c2ccc(OC3CCN(C[C@H]4CC[C@H](n5cc(NC(=O)c6cnn7ccc(N8C[C@H](N)C[C@@H](F)C8)nc67)c(C(F)F)n5)CC4)CC3)cc21 (some centres unmarked) [P-26] | < 0.5 nM | 11 nM
CN(C[C@H]1CC[C@H](n2cc(NC(=O)c3cnn4ccc(N5CCOCC5)nc34)c(C(F)F)n2)CC1)C1CCN(c2ccc3c(C4CCC(=O)NC4=O)nn(C)c3c2)CC1 (some centres unmarked) [P-29, N-[3-(Difluoromethyl)-1-[4-[[[1-[3-(2,6-dioxo-3-piperidyl)-1-methyl-indazol-6-yl]-4-piperidyl]-methyl-amino]methyl]cyclohexyl]pyrazol-4-yl]-5-morpholino-pyrazolo[1,5-a]pyrimidine-3-carboxamide] | < 0.5 nM | > 10000 nM
CN(c1ccc2c(C3CCC(=O)NC3=O)nn(C)c2c1)C1CCN(C[C@H]2CC[C@H](n3cc(NC(=O)c4cnn5ccc(N6C[C@H](N)C[C@@H](F)C6)nc45)c(C(F)F)n3)CC2)CC1 (some centres unmarked) [P-31] | < 0.5 nM | 3 nM
CN(c1ccc2c(C3CCC(=O)NC3=O)nn(C)c2c1)C1CCN(C[C@H]2CC[C@H](n3cc(NC(=O)c4cnn5ccc(N6CCOCC6)nc45)c(C(F)F)n3)CC2)CC1 (some centres unmarked) [P-32] | < 0.5 nM | 1 nM
Cc1ccc(Nc2ccn3ncc(C(=O)Nc4cn([C@H]5CC[C@H](CN(C)C6CCN(c7ccc8c(C9CCC(=O)NC9=O)nn(C)c8c7)CC6)CC5)nc4C(F)F)c3n2)cn1 (some centres unmarked) [P-48] |  | 3510 nM
